The source of these data is paper PMC8419995, “In vitro and in vivo efficacy of thiacloprid against Echinococcus multilocularis” (Parasites & Vectors, 2021).

For data set [1], the system named is E. multilocularis protoscoleces and germinal cells. Briefly: Glucose consumption (2-deoxyglucose uptake). Type of data set: cell-based, Echinococcus multilocularis. On the procedure: Glucose consumption in E. multilocularis protoscoleces and germinal cells was detected using the Screen Quest Colorimetric Glucose Uptake Assay Kit (AAT Bioquest, Sunnyvale, CA, USA). The newly separated protoscoleces were washed twice with Krebs–ringer phosphate HEPES (KRPH) buffer and then resuspended in 1 ml glucose uptake buffer for 1 h. Each well contained about 200 protoscoleces. Isolated E. multilocularis germinal cells were resuspended with serum-free DMEM and cultured overnight in nitrogen at 37 °C. Germinal cells were then washed twice with KPRH buffer and resuspended in 90 μl glucose uptake buffer for 1 h. Subsequently, the protoscoleces and germinal cells were added with 10 μl thiacloprid (5 μM) for 1 h, and treated with 10 μl 2-deoxyglucose (2DG) for 1 h. The germinating cells treated with thiacloprid were labeled with mitochondria red fluorescent probe (Beyotime, Shanghai, China) and the percentage of living cells was measured by flow cytometry. The protoscoleces and germinal cells were washed twice with KRPH buffer and then lysed with 25 μl acidic lysis buffer in an Eppendorf tube (EP) for 30 min. A neutralizing buffer was added to each well and left at room temperature for 20 min to neutralize the lysate. […] Lastly, the mixture was transferred to a 96-well cell culture plate and the absorbance was measured at 570 nm using an Infinite M200 PRO reader (Tecan). […]

In data set [2] the test system is E. multilocularis germinal cells. The data set can be described thus: CellTiter-Glo viability assay on germinal cells. Type of data set: cell-based, Echinococcus multilocularis. To be noted: 5 days. On the procedure: To evaluate the activity of thiacloprid against parasitic stem cells, germinal cells from in vitro metacestode vesicles were investigated as described by Spiliotis et al.. Briefly, 20 units of cells were distributed into a black 384-well plate. Different concentrations of thiacloprid or PZQ (0, 0.06, 1.2, 2.5, 5, 10, 20, 40, 80 and 160 μM) were added to the cells. After culture at 37 °C for 5 days under a humid nitrogen atmosphere, 25 μl CellTiter-Glo containing 1% Triton X-100 was added. The plates were incubated at room temperature in the dark for 15 min. After the total destruction of the cellular aggregates, luminescence was measured using an Infinite M200 PRO reader (Tecan), and 0 μM values were set to 100% viability. The IC50 values were calculated using an online IC50 calculator after logit-log transformation. Four independent replicates were conducted.
Background: In ATP-based viability assays light output follows the ATP content of the culture.

A further data set concerns acetylcholinesterase. The data set can be described thus: Acetylcholinesterase activity (Ellman) in extracts of protoscoleces, metacestodes and germinal cells. Type of data set: biochemical, Echinococcus multilocularis. The conditions noted are these: extract; thiacloprid 5 μM, 37 °C 10 min; BW284c51 positive control. The protocol: The effects of thiacloprid on the acetylcholinesterase activity of E. multilocularis protoscoleces, metacestodes and germinal cells were determined according to a previously described method. The protoscoleces, metacestode and germinal cells were washed twice with PBS and homogenized with an electric homogenizer in precooled PBS. Centrifugation of the homogenates was performed at 100,000×g for 30 min. The protein concentration of the supernatant was determined by the modified Lowry method according to the instructions, and the concentration was adjusted to 2 mg/ml. Thiacloprid (5 μM) was added to the extract and incubated at 37 °C for 10 min. The extract was supplemented with 0.1% DMSO as control. Subsequently, acetylcholinesterase activity was assessed according to Ellman’s procedure using a microplate with 260 µl of 0.1 M PBS buffer pH 8.0, 10 µl of 10 mM dithiobisnitrobenzoic acid solution, 2.5 µl of 75 mM substrate (acetylthiocholine iodide) and 25 µl of the sample treated with thiacloprid. The OD increment was measured at 412 nm using an Infinite M200 PRO reader (Tecan). Each experiment was conducted three times. BW284c51 (CAS number: 402-40-4, Sigma) was used as a positive control.

Data set [3] has as its system IL-2, IL-4, IL-10 and IgE. Briefly: ELISA of cytokines and IgE in infected mice. To be noted: infected BALB/c mice, 6 weeks oral treatment. It counts as in vivo. The protocol: In vitro-grown metacestode vesicles were pressed through a 500 µm mesh and washed three times with sterile PBS. The parasite tissue was then taken up in an equal volume of sterile PBS. Each mouse was intraperitoneally injected with 200 μl suspension. Seven mice were injected with 200 μl PBS as the control group. Twenty-eight infected mice were randomly distributed into four groups (7 mice/group): the untreated group was not administered any drug; the ABZ group was treated with ABZ orally (100 mg/kg/day); and the Thia15 group and Thia30 group received thiacloprid orally (15 mg/kg/day and 30 mg/kg/day). Treatments of mice started 2 weeks post-infection, and treatments were administered daily for 6 weeks. After 6 weeks of treatment, whole blood via the orbital sinus was collected from mice and the animals were euthanized by CO2. Blood samples were incubated at 37 °C for 1 h and centrifuged at 3500 rpm for 10 min at 4 °C. The serum was harvested and stored at –20 °C for IL-2, IL-4, IL-10 and IgE detection. All metacestode tissues were collected, and the total wet weight of metacestodes per mice was determined. Furthermore, the content of cytokines in microcyst fluid was detected by enzyme-linked immunosorbent assay (ELISA). Several metacestode tissue specimens were processed for transmission electron microscopy (TEM) and histopathological experiments.
ELISA was employed to detect serum IL-2, IL-4, IL-10 and IgE following the manufacturer's instructions. Mouse collagen I and collagen III ELISA kits were used to measure the levels of collagen I and collagen III in the cell culture supernatant after intervention with thiacloprid. All ELISA kits were provided by Elabscience Biotechnology Co., Ltd., Wuhan, China. The OD value at 450 nm was read with a Tecan Infinite M200 PRO enzyme reader (Männedorf, Switzerland), and the concentration was calculated according to the standard curve.
(In general: In an ELISA, binding on a coated surface is turned into a signal by an enzyme label.)

The test system of data set [4] is E. multilocularis protoscoleces. The data set can be described thus: Protoscolex viability, 0.1% eosin exclusion test. Type of data set: cell-based, Echinococcus multilocularis. The protocol:
Viable protoscoleces were cultured in Medium 199, supplemented with 1% penicillin–streptomycin, 50 μg/ml gentamicin and 4 mg/ml glucose according to a previously described method. […] PZQ was used as a positive control. The protoscoleces were cultured in an incubator at 37 °C and 5% CO2 for 7 days. Additionally, 0.1% eosin exclusion test was used to evaluate the viability of protoscoleces. To reduce the bias as much as possible, protoscolex viability was observed by two experimenters under double-blind conditions. Each experiment was conducted three times.

On the set-up of data set [5]: method as in PMID 21786385. The conditions noted are these: cited from earlier work.

As to `N#C/N=C1\SCCN1Cc1ccc(Cl)nc1` [thiacloprid], in data set [1] (5 μM, 1 h), the “Uptake of 2-DG by protoscoleces and germinal cells” value is “reduced uptake”. For the same molecule, the “Viability of protoscoleces and germinal cells” value in data set [1] (treatment for 1 h) was “not affected”. In addition, the viability (commonly a read-out of living cells in per cent, often relative to untreated cells) at 2.5 µM in data set [2] (Echinococcus multilocularis, 120 h, 2.5 μM, read-out: Cell viability rate of germinal cells) turned out to be 58.3 ± 6.09%. Also, in data set [2] (Echinococcus multilocularis, 120 h, 5 μM, read-out: Cell viability rate of germinal cells), the viability at 5 µM is 38.3 ± 4.47%. For the same molecule, the half-maximal inhibitory concentration (IC50) (usually the point on the concentration scale where inhibition reaches its midpoint) in data set [2] (Echinococcus multilocularis, 120 h, CellTiter-Glo, read-out: IC50 against germinal cells) was 2890 ± 340 nM. For the same molecule, in data set [2] (more than 10 μM), the “Inhibition rate of germinal cell viability” value is listed as “more than 80%”. Besides, the “Acetylcholinesterase activity in protoscoleces, metacestode vesicles and germinal cells” value in the data set on acetylcholinesterase is recorded as “suppressed”. For the same molecule, in data set [3], the “Expression of IL-2, IL-4 and IL-10 in microcyst fluid” value was “upregulated”; the “Expression of IL-2, IL-4 and IL-10 in serum compared with the untreated group” value is reported as “upregulated”; the “Expression of IgE in serum compared with the untreated group” value is “downregulated”. In addition, in data set [4] (1.2 μM), the “Effect on protoscolex viability” value is “no significant effect”. In addition, the Dead protoscoleces in data set [4] (5 μM for 4 days) was 47.33 ± 4.04%. The “Dose that can cause hepatocellular necrosis and hydropic degeneration” value in data set [5] was 22.5 mg/kg.
